Measured values: ChEMBL document CHEMBL5634108, “The latest perspectives of small molecules FMS kinase inhibitors” (Eur J Med Chem, 2023)
Values belong to the compound of their own block, whether it stands above or below them.

What was measured:
[1] = biological target: T1, Mast/stem cell growth factor receptor Kit (Homo sapiens, UniProt P10721); experiment: Inhibition of c-Kit (unknown origin) in presence of ATP
[2] = biological target: T2, Macrophage colony-stimulating factor 1 receptor (Homo sapiens, UniProt P07333); experiment: Inhibition of CSF1R (unknown origin)
[3] = biological target: Receptor-type tyrosine-protein kinase FLT3 (Homo sapiens) (UniProt P36888); experiment: Inhibition of FLT3 (unknown origin) at 10 uM relative to control
[4] = biological target: Vascular endothelial growth factor receptor 1 (Homo sapiens, UniProt P17948); experiment: Inhibition of FLT1 (unknown origin)
[5] = biological target: T3, Vascular endothelial growth factor receptor 2 (Homo sapiens, UniProt P35968); experiment: Inhibition of VEGFR-2 (unknown origin) in presence of ATP incubated for 45 mins by ELISA method
[6] = biological target: T4, Tyrosine-protein kinase Lck (Homo sapiens, UniProt P06239); experiment: Inhibition of LCK (unknown origin) using TK as substrate incubated for 30 mins by HTRF assay
Target sequence in this assay (P06239 whole entry): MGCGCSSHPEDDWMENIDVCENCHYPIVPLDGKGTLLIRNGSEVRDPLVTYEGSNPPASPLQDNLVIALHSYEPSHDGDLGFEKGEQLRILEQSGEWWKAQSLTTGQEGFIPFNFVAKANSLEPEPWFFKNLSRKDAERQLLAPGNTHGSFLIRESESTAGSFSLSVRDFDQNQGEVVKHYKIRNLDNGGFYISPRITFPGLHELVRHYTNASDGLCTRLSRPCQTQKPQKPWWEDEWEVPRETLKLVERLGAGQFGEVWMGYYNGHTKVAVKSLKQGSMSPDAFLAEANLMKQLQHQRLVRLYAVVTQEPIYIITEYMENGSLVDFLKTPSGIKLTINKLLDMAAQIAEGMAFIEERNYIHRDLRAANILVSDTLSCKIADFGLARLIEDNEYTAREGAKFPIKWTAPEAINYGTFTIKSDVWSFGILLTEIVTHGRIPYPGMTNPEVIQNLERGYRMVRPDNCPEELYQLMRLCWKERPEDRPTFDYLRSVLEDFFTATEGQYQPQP

[7] = biological target: T5, NT-3 growth factor receptor (Homo sapiens, UniProt Q16288); experiment: Inhibition of TRKC (unknown origin)
[8] = biological target: T5, NT-3 growth factor receptor; experiment: Inhibition of TRKC (unknown origin) by TR-FRET assay
[9] = biological target: Receptor-type tyrosine-protein kinase FLT3 (Homo sapiens) (UniProt P36888); experiment: Inhibition of FLT3 (unknown origin) at 10 uM by biochemical Hotspot kinase assay relative to control
[10] = biological target: T6, Receptor-type tyrosine-protein kinase FLT3 (Homo sapiens, UniProt P36888); experiment: Inhibition of FLT3 (unknown origin) by enzymatic assay
T6 sequence (P36888 whole entry): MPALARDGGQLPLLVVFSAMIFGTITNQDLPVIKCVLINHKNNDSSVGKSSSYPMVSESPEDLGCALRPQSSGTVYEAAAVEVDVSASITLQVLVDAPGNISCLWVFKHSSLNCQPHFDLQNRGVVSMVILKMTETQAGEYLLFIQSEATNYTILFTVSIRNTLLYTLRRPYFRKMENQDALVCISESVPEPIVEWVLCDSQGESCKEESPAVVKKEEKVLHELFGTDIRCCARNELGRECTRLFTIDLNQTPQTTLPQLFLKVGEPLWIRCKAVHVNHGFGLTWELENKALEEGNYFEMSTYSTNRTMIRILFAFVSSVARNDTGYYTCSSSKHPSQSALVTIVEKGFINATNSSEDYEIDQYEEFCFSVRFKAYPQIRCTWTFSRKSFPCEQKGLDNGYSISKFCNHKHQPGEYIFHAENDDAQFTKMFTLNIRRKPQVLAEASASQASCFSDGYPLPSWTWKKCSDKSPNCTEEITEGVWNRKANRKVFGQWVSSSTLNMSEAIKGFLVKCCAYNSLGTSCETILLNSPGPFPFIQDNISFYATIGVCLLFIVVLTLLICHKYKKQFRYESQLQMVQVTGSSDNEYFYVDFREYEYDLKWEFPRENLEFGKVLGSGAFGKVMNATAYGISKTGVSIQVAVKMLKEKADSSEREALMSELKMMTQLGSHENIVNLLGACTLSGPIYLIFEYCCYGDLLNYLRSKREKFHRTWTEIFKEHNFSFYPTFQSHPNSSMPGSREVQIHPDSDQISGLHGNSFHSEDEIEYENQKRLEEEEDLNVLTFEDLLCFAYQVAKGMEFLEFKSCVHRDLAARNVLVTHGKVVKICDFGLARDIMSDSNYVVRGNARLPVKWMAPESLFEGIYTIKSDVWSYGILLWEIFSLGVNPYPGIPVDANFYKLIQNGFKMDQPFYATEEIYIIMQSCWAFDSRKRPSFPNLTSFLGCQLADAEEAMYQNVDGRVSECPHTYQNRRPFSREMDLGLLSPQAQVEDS

[11] = biological target: T7, Aurora kinase C (Homo sapiens, UniProt Q9UQB9); experiment: Inhibition of human AURKC by discoverX kinome scan assay
T7 sequence (Q9UQB9 whole entry): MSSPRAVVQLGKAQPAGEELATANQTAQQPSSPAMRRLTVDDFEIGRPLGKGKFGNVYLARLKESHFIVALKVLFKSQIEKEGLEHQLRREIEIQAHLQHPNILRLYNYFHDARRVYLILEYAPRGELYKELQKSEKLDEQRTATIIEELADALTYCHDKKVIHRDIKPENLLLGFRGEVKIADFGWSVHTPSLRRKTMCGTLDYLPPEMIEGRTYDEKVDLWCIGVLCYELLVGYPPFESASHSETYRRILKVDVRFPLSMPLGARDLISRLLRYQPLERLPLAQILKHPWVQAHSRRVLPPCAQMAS

[12] = biological target: T7, Aurora kinase C; experiment: Inhibition of AURKC (unknown origin)
[13] = biological target: T3, Vascular endothelial growth factor receptor 2; experiment: Inhibition of KDR (unknown origin)
[14] = biological target: Receptor-type tyrosine-protein kinase FLT3 (Homo sapiens, UniProt P36888, ITD); experiment: Inhibition of FLT3 ITD mutant (unknown origin) preincubated for 60 mins followed by ATP addition and measured after 1 hr by ADP-Glo assay
[15] = biological target: T1, Mast/stem cell growth factor receptor Kit; experiment: Inhibition of KIT (unknown origin) using ATP as substrate incubated for 1 hrs by ELISA
[16] = biological target: T8, Tyrosine-protein kinase receptor UFO (Homo sapiens, UniProt P30530); experiment: Inhibition of AXL (unknown origin) by FRET assay
T8 sequence (P30530 whole entry): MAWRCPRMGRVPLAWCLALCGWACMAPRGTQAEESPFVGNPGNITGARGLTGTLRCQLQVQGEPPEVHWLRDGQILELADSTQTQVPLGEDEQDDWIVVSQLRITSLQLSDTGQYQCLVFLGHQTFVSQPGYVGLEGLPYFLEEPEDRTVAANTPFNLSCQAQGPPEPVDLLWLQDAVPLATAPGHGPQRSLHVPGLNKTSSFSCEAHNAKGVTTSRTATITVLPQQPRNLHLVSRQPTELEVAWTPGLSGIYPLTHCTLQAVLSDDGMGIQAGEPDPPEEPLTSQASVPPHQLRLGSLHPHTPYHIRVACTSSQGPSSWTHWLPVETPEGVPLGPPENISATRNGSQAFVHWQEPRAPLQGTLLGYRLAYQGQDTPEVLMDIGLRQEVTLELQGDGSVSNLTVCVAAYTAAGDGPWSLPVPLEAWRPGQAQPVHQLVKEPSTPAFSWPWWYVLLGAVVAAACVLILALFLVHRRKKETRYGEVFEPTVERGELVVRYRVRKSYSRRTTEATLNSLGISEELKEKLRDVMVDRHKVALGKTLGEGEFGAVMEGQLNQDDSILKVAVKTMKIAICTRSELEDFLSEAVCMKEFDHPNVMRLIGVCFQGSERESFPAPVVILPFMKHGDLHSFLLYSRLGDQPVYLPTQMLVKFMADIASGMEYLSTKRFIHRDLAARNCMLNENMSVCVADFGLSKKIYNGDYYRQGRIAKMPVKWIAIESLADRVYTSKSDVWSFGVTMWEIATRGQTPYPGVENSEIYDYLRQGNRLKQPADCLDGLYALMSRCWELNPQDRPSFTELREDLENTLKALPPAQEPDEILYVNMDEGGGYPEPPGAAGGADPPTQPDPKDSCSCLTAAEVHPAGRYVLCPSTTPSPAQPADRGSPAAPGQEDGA

[17] = test system: SF-268; experiment: Growth inhibition of human SF-268 cells by sulforhodamine B assay; assay type: functional
[18] = biological target: T2, Macrophage colony-stimulating factor 1 receptor; experiment: Inhibition of FMS (unknown origin) by kinase assay
[19] = biological target: T4, Tyrosine-protein kinase Lck; experiment: Inhibition of LCK (unknown origin) at 10 uM using 33P-ATP as substrate by biochemical Hotspot kinase assay relative to control

T2 sequence (P07333 whole entry): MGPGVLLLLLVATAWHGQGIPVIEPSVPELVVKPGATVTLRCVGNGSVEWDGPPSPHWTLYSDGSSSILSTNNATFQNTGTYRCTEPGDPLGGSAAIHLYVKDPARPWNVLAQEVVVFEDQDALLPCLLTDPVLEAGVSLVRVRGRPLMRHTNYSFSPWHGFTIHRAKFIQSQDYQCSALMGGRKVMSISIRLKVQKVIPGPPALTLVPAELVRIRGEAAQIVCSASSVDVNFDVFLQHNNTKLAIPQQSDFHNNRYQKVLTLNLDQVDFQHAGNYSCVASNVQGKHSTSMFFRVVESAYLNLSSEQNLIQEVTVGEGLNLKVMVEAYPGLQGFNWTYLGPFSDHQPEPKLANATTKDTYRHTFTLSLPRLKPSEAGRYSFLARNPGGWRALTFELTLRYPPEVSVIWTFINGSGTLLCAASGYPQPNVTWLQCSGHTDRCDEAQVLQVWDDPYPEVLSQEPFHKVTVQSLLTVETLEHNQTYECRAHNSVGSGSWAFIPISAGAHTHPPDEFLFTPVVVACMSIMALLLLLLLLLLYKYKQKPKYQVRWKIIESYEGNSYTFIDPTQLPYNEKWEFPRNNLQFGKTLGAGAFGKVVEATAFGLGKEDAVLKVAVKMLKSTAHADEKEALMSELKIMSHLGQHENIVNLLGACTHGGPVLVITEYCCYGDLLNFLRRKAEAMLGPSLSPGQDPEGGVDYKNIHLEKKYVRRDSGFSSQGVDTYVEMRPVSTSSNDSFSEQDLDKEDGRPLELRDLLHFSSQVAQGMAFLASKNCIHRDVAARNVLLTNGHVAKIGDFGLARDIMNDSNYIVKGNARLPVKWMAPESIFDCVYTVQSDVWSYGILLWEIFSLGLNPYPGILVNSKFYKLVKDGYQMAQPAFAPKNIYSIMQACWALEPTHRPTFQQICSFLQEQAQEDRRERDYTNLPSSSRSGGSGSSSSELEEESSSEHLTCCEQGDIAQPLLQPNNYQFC
T1 sequence (P10721 whole entry): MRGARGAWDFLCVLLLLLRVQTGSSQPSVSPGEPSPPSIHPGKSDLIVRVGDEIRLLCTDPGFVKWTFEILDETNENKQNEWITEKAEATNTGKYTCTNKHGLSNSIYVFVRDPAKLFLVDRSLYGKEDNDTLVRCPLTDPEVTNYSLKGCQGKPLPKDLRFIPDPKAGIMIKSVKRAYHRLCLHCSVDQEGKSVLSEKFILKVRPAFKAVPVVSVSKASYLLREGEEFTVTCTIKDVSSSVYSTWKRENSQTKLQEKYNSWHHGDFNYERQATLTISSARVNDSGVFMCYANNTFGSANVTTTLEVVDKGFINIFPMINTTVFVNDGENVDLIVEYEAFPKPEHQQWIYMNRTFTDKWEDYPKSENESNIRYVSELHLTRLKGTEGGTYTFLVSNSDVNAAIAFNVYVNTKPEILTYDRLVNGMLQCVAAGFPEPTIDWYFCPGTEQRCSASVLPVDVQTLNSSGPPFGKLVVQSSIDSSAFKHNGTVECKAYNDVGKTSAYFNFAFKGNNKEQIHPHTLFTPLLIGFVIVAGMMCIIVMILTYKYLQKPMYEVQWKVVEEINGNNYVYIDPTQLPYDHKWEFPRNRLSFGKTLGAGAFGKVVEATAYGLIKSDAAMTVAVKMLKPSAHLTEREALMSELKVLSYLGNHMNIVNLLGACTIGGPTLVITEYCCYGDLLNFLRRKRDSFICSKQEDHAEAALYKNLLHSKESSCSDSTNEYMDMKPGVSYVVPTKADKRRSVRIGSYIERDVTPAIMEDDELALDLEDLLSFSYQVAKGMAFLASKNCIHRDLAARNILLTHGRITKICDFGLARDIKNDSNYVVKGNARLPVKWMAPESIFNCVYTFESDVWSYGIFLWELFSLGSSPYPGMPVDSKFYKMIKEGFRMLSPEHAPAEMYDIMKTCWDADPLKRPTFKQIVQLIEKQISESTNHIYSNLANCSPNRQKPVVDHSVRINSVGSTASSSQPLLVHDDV
T3 sequence (P35968 whole entry): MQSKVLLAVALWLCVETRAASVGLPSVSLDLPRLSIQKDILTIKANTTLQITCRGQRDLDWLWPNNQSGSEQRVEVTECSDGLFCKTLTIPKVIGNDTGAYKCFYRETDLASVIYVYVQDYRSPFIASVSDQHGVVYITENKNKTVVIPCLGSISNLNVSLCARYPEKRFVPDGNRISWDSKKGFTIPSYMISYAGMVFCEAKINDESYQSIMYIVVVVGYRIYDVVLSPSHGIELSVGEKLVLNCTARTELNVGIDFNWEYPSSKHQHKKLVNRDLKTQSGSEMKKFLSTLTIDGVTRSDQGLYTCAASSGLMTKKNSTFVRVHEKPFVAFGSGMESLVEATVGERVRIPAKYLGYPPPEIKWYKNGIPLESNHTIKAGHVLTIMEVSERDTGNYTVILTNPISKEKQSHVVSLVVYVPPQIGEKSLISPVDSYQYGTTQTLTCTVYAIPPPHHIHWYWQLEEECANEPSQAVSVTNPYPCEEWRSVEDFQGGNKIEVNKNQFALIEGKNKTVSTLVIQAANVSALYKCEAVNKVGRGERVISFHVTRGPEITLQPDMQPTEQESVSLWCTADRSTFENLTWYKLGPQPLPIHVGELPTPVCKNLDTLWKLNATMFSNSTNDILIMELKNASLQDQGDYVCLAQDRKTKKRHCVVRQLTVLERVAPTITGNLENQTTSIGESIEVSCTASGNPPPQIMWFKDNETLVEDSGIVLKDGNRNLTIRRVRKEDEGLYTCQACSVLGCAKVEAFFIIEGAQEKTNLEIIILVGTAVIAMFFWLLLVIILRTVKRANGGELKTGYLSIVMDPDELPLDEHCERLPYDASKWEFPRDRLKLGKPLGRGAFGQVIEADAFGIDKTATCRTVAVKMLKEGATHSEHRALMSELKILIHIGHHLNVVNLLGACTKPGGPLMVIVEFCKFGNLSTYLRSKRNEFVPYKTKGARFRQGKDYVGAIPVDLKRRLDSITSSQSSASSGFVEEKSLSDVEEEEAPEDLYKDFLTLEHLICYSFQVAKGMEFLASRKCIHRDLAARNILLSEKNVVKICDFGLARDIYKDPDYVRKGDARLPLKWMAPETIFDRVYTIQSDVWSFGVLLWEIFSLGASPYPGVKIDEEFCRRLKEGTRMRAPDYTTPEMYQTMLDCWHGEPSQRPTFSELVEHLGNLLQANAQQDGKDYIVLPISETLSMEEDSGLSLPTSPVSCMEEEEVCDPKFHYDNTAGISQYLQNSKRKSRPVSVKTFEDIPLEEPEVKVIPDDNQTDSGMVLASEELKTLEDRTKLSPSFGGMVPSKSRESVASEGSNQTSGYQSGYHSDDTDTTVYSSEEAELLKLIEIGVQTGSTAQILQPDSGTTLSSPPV
T5 sequence (Q16288 whole entry): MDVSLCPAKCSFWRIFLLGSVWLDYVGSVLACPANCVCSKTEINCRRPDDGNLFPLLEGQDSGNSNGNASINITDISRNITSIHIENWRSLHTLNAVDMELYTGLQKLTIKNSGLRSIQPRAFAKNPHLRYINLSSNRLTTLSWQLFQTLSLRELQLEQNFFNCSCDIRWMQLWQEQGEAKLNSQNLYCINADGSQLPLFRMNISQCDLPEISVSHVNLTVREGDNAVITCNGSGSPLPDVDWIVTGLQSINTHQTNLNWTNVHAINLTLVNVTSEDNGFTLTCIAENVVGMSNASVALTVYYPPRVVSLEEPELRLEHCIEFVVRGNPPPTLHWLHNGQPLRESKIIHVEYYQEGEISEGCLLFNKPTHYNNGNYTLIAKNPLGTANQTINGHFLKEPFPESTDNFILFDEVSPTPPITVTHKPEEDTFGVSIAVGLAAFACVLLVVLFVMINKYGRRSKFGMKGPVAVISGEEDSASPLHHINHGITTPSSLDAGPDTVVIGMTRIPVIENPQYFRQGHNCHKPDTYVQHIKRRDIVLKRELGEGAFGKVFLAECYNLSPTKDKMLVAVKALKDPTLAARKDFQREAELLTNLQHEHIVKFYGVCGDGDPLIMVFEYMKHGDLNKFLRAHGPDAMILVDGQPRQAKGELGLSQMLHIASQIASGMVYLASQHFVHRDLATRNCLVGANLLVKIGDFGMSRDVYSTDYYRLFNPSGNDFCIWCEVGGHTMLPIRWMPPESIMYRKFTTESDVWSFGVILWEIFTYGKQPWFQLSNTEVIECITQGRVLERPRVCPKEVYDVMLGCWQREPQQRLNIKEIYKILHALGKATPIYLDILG

Compound: CNC(=O)c1nccc2cc(-c3cncc(Nc4ccc(OC5CC5)nc4)c3C)[nH]c12
IC50 [1]: 1.13 nM

Compound: Cc1nc2[nH]cc(Cc3ccc(NCc4ccc(C(F)(F)F)nc4)nc3)c2c(C)c1O
IC50 [2]: 57800 nM
IC50 [1]: 1630 nM
inhibition [3]: 8.12%

Compound: Nc1nccc2c1ccn2-c1cccc(NC(=O)c2ccc(N3CCOCC3)c(C(F)(F)F)c2)c1
IC50 [2]: 30 nM

Compound: FC(F)(F)c1ccc(CNc2ccc(Cc3c[nH]c4ncc(Cl)cc34)cn2)cn1 [PEXIDARTINIB]
IC50 [4]: 880 nM
IC50 [5]: 350 nM
IC50 [6]: 860 nM
IC50 [7]: 890 nM
IC50 [8]: 20 nM

Compound: COc1ccc(Oc2nc(Nc3ccc(N4CCCCC4)nc3)ncc2NC(=O)c2cc(OC)cc(OC)c2)cc1
inhibition [9]: 14.5%

Compound: CC1(C)CC=C(c2nc(C3CC(C)(C)OC(C)(C)C3)ccc2NC(=O)c2nc(C#N)c[nH]2)CC1 [EDICOTINIB]
IC50 [10]: 190 nM

Compound: COc1nc(F)ccc1CNc1ccc(Cc2c[nH]c3ncc(C)cc23)c(F)n1
IC50 [11]: 16 nM
IC50 [12]: 1000 nM
IC50 [13]: 1100 nM
IC50 [14]: 390 nM
IC50 [15]: 860 nM

More lines, main results first:

IC50 [16]: 15 nM
Compound: CNC(=O)c1cc2c(Oc3ccc(NC(=S)NC(=O)Cc4ccccc4)cc3F)ccnc2cc1OC [TAS-115]

IC50 [18]: 15 nM
Compound: COc1cc(NC(=O)Nc2cnc(Nc3ccc(N4CCOCC4)cc3)nc2Oc2cccc(OC)c2)cc(OC)c1
GI50 [17]: 50300 nM

inhibition [19]: 87.7%
Compound: COc1ccc(Oc2nc(Nc3ccc(N4CCOCC4)cc3)ncc2NC(=O)c2cccc(SC)c2)cc1

IC50 [2]: 12 nM
Compound: COc1ccc(COc2ncc(Oc3ccnc(C(=O)N[11CH3])c3)cc2OC)cc1
